According to the supplement of paper PMC11061612:

Tests used:
[1] = system: OCI-AML5 (Acute Myeloid Leukemia); experiment: Bliss excess, mean over the matrix (fraction); higher = more synergy
Outline: (§1)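 Bliss excess equals the observed combination effect minus the expected value EA + EB − EA·EB, where EA and EB are the effects of each agent alone. Combination Emax is the second-highest inhibition within the matrix. Inhibition was scaled from CellTiter-Glo 2.0 luminescence, with 0 set by vehicle wells and 1 by blank wells, after 72 hours of two-drug dosing of cells plated in 1536-well plates.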

[2] = system: NKM-1 (Acute Myeloid Leukemia); experiment: as above
Outline: as §1

[3] = system: FLO-1 (Esophageal Adenocarcinoma); experiment: as above
Outline: as §1

[4] = system: NCI-H1563 (Lung Adenocarcinoma); experiment: as above
Outline: as §1

ES-2 (Ovarian Carcinoma) = experiment: as above
Outline: as §1

[5] = system: AsPC-1 (Pancreatic Carcinoma); experiment: as above
Outline: as §1

[6] = system: COLO-684 (Endometrial Carcinoma); experiment: as above
Outline: as §1

[7] = system: NCI-H810 (Non-Small Cell Lung Carcinoma); experiment: as above
Outline: as §1

[8] = system: HTC-C3 (Thyroid Gland Carcinoma); experiment: as above
Outline: as §1

786-0 (Kidney Carcinoma) = experiment: as above
Outline: as §1

[9] = system: KYSE-70 (Esophageal Squamous Cell Carcinoma); experiment: as above
Outline: as §1

KYM-1 (Rhabdomyosarcoma) = experiment: as above
Outline: as §1

CHL-1 (Melanoma) = experiment: as above
Outline: as §1

[10] = system: SJRH30 (Rhabdomyosarcoma); experiment: as above
Outline: as §1

[11] = system: OVTOKO (Ovarian Carcinoma); experiment: as above
Outline: as §1

[12] = system: RL95-2 (Endometrial Carcinoma); experiment: as above
Outline: as §1

[13] = system: JHH-1 (Hepatocellular Carcinoma); experiment: as above
Outline: as §1

[14] = system: RPMI-8866 (Chronic Myelogenous Leukemia); experiment: as above
Outline: as §1

[15] = system: COLO-684 (Endometrial Carcinoma); experiment: combination Emax (second highest fraction inhibited in the dose matrix, 72 h); higher = more inhibition; extreme values may be limits of the assay
Outline: as §1

[16] = system: CML-T1 (Chronic Myelogenous Leukemia); experiment: as above
Outline: as §1

| Compound | Bliss excess [1] | Bliss excess [2] | Bliss excess [3] | Bliss excess [4] | Bliss excess (ES-2 (Ovarian Carcinoma)) | Bliss excess [5] | Bliss excess [6] | Bliss excess [7] | Bliss excess [8] | Bliss excess (786-0 (Kidney Carcinoma)) | Bliss excess [9] | Bliss excess (KYM-1 (Rhabdomyosarcoma)) | Bliss excess (CHL-1 (Melanoma)) | Bliss excess [10] | Bliss excess [11] | Bliss excess [12] | Bliss excess [13] | Bliss excess [14] | combination Emax [15] | combination Emax [16] |
| --- | --- | --- | --- | --- | --- | --- | --- | --- | --- | --- | --- | --- | --- | --- | --- | --- | --- | --- | --- | --- |
| COc1nnc2ccc(N3CCC(c4ccc(OCCN5CCN(C)C(=O)[C@H]5C)cc4)CC3)nn12 [AZD5153] + Cc1c2c(nn1C)CSCc1cc(n(C)n1)CSc1cc(c3ccccc3c1)OCCCc1c(C(=O)O)n(C)c3c-2c(Cl)ccc13 [AZD5991] (first compound max 1 µM, 7x7, partner max 1 µM) | 0.134 | -0.0491 | -0.0352 | 0.0341 | -0.0534 | -0.0639 | -0.0106 | 0.0448 | -0.0441 | -0.0166 | -0.0652 | 0.0335 | 0.0613 | 0.0045 | -0.0536 | -0.0414 | 0.106 | -0.0361 | 0.67 | 0.523 |
| CC1(C)CCC(CN2CCN(c3ccc(C(=O)NS(=O)(=O)c4ccc(NCC5CCOCC5)c([N+](=O)[O-])c4)c(Oc4cnc5[nH]ccc5c4)c3)CC2)=C(c2ccc(Cl)cc2)C1 [Venetoclax] + CCN(CCO)CCCOc1ccc2c(Nc3cc(CC(=O)Nc4cccc(F)c4)[nH]n3)ncnc2c1 [AZD2811] (first compound max 1 µM, 7x7, partner max 1 µM) | -0.0195 | 0.0697 | -0.019 | 0.0151 | -0.0388 | -0.0755 | -0.0358 | -0.034 | -0.0236 | -0.0469 | 0.0245 | -0.0017 | 0.0784 | 0.0544 | -0.0183 | 0.0814 | -0.0166 | 0.133 | 0.19 | 0.991 |
| CN(C)CCCOc1ccc(-c2ccc3ncc4c(c3c2)n(C2CCOCC2)c(=O)n4C)cn1 [AZD0156] + O=C(c1cc(Cc2n[nH]c(=O)c3ccccc23)ccc1F)N1CCN(C(=O)C2CC2)CC1 [Olaparib] (first compound max 3 µM, partner max 3 µM) | 0.0103 | 0.0587 | 0.0512 | -0.0158 | 0.0327 | 0.005 | 0.0274 | 0.0541 | -0.0502 | 0.0418 | -0.0054 | 0.185 | -0.0224 | 0.0963 | -0.0032 | 0.11 | 0.0084 | 0.0607 | 0.307 | 0.688 |
| COc1cccc(OCCCN)c1-c1cc(Nc2cnc(C#N)cn2)n[nH]1 [Prexasertib] + C[C@@H]1COCCN1C2=NC(=NC(=C2)C3(CC3)[S@](=N)(=O)C)C4=C5C=CNC5=NC=C4 [AZD6738] (first compound max 1 µM, 7x7, partner max 10 µM) | -0.0205 | -0.0583 | -0.0233 | -0.0878 | -0.0375 | 0.0292 | -0.0733 | -0.0519 | -0.0034 | -0.0219 | 0.0378 | -0.0107 | 0.0139 | -0.0192 | 0.0006 | -0.0487 | 0.0009 | 0.0633 | 0.864 | 0.97 |
| CC(=O)c1c(C)c2cnc(Nc3ccc(N4CCNCC4)cn3)nc2n(C2CCCC2)c1=O [Palbociclib] + Cc1c2c(nn1C)CSCc1cc(n(C)n1)CSc1cc(c3ccccc3c1)OCCCc1c(C(=O)O)n(C)c3c-2c(Cl)ccc13 [AZD5991] (first compound max 10 µM, 7x7, partner max 1 µM) | 0.0572 | -0.0003 | 0.0084 | -0.098 | -0.0182 | -0.0859 | -0.0173 | -0.0444 | 0.0082 | 0.0201 | -0.0462 | 0.0337 | 0.0344 | -0.0488 | -0.0315 | -0.0841 | -0.0111 | -0.004 | 0.321 | 0.924 |
| Cc1c2c(nn1C)CSCc1cc(n(C)n1)CSc1cc(c3ccccc3c1)OCCCc1c(C(=O)O)n(C)c3c-2c(Cl)ccc13 [AZD5991] + Cn1cnc2c(F)c(Nc3ccc(Br)cc3Cl)c(C(=O)NOCCO)cc21 [Selumetinib] (first compound max 1 µM, 7x7, partner max 3 µM) | 0.0422 | -0.0014 | -0.055 | 0.0158 | 0.0389 | -0.0325 | -0.0177 | -0.0133 | -0.0271 | 0.0107 | 0.0244 | 0.0084 | -0.0031 | 0.0386 | -0.039 | 0.0336 | 0.0408 | -0.0462 | 0.261 | 0.344 |
| COc1cccc(OCCCN)c1-c1cc(Nc2cnc(C#N)cn2)n[nH]1 [Prexasertib] + Cc1cc2ncnn2cc1Nc1ncc2c(n1)n(C1CCOCC1)c(=O)n2C [AZD7648] (first compound max 1 µM, 7x7, partner max 10 µM) | 0.0718 | -0.0271 | -0.0817 | -0.0146 | -0.0357 | -0.0242 | -0.0547 | 0.0108 | -0.018 | -0.0276 | -0.0383 | -0.0078 | -0.0122 | -0.0311 | -0.0079 | -0.0263 | 0.0093 | 0.0455 | 0.844 | 0.98 |
| CC1(C)CCC(CN2CCN(c3ccc(C(=O)NS(=O)(=O)c4ccc(NCC5CCOCC5)c([N+](=O)[O-])c4)c(Oc4cnc5[nH]ccc5c4)c3)CC2)=C(c2ccc(Cl)cc2)C1 [Venetoclax] + C[C@@H]1COCCN1C2=NC(=NC(=C2)C3(CC3)[S@](=N)(=O)C)C4=C5C=CNC5=NC=C4 [AZD6738] (first compound max 1 µM, 7x7, partner max 10 µM) | 0.0391 | -0.0143 | -0.0338 | 0.0131 | -0.0372 | -0.0301 | 0.005 | -0.0356 | -0.0354 | -0.0882 | -0.0447 | -0.0119 | 0.0493 | -0.0182 | -0.0395 | -0.0361 | -0.0365 | 0.0052 | 0.753 | 0.993 |
| Cc1cc2ncnn2cc1Nc1ncc2c(n1)n(C1CCOCC1)c(=O)n2C [AZD7648] + O=C(c1cc(Cc2n[nH]c(=O)c3ccccc23)ccc1F)N1CCN(C(=O)C2CC2)CC1 [Olaparib] (first compound max 10 µM, 7x7, partner max 10 µM) | 0.0077 | 0.0104 | -0.0259 | -0.0487 | -0.0354 | -0.0567 | -0.0054 | -0.0482 | -0.0224 | -0.0162 | -0.0528 | -0.0078 | -0.0266 | -0.0148 | -0.0433 | -0.0444 | -0.0621 | 0.0298 | 0.238 | 0.71 |
| C=CCn1c(=O)c2cnc(Nc3ccc(N4CCN(C)CC4)cc3)nc2n1-c1cccc(C(C)(C)O)n1 [AZD1775] + O=C(c1cc(Cc2n[nH]c(=O)c3ccccc23)ccc1F)N1CCN(C(=O)C2CC2)CC1 [Olaparib] (first compound max 1 µM, partner max 10 µM) | -0.0096 | -0.0375 | -0.0673 | -0.0288 | -0.0517 | 0.0039 | -0.12 | -0.038 | -0.0064 | -0.0097 | -0.0188 | 0.0188 | -0.0491 | -0.0057 | -0.0514 | -0.0372 | -0.0244 | -0.0528 | 0.625 | 0.962 |
| COc1nnc2ccc(N3CCC(c4ccc(OCCN5CCN(C)C(=O)[C@H]5C)cc4)CC3)nn12 [AZD5153] + Cn1cnc2c(F)c(Nc3ccc(Br)cc3Cl)c(C(=O)NOCCO)cc21 [Selumetinib] (first compound max 1 µM, 7x7, partner max 10 µM) | 0.0945 | 0.0071 | 0.0012 | -0.085 | 0.0345 | -0.0238 | -0.0134 | -0.0224 | -0.0464 | 0.0143 | 0.0097 | 0.0086 | 0.0049 | 0.0152 | -0.0591 | -0.0221 | 0.0139 | -0.0233 | 0.549 | 0.452 |
| COc1nnc2ccc(N3CCC(c4ccc(OCCN5CCN(C)C(=O)[C@H]5C)cc4)CC3)nn12 [AZD5153] + C[C@@H]1COCCN1C2=NC(=NC(=C2)C3(CC3)[S@](=N)(=O)C)C4=C5C=CNC5=NC=C4 [AZD6738] (first compound max 1 µM, 7x7, partner max 10 µM) | 0.0158 | -0.0373 | 0.0257 | 0.0203 | 0.0316 | 0.0778 | -0.0231 | -0.0236 | -0.0187 | 0.0479 | -0.0358 | -0.0398 | -0.0569 | 0.0588 | 0.0999 | 0.0017 | 0.0386 | -0.0364 | 0.797 | 0.976 |
